Experimental data from US20150005288A1, “SUBSTITUTED PHENYLIMIDAZOPYRAZOLES AND USE THEREOF” (Bayer Intellectual Property GmbH, priority 2012, published 2015).
pIC50: −log10 of the molar value.

Target: T1, intracellular domain of human Tie2 (GST fusion protein) (Homo sapiens, UniProt Q02763)
T1 construct: intracellular domain of human Tie2 (amino acids 776-1124); made in house; host or cells: Baculovirus-infected insect cells (Hi5)
Test: Tie2 kinase assay (Tie2-TR-FRET)
Format: biochemical
Settings: ATP concentration 1 mM, in some cases means of several independent determinations
Method: The Tie2-inhibitory activity of the substances according to the invention was determined with the aid of one of the Tie2-TR-FRET assays described in the sections below at an ATP concentration of 1 mM (TR-FRET=Time-Resolved Fluorescence Resonance Energy Transfer):
The enzyme used was a recombinant fusion protein of glutathione S-transferase (GST) and the intracellular domain of human Tie2 (amino acids 776-1124) which was expressed in Baculovirus-infected insect cells (Hi5) and was purified by affinity chromatography on glutathione-Sepharose. Alternatively, it is also possible to use commercially available GST-His6-Tie2 fusion protein (ProQinase GmbH, Freiburg im Breisgau, Germany). The substrate used for the kinase reaction was the biotinylated peptide biotin-Ahx-[…] (C-terminus in amide form) which is commercially available (for example from Biosyntan, Berlin, Germany).
For the assay, 50 nl of a 100-fold concentrated solution of the respective test substance in DMSO were pipetted into a black low-volume 384-well microtitre plate (Greiner Bio-One, Frickenhausen, Germany) 2 μl of a solution of the Tie2 fusion protein in assay buffer [50 mM HEPES/HCl pH 7, 10 mM MgCl2, 2.5 mM MnCl2, 1 mM dithiothreitol, 0.01% (v/v) Nonidet P-40, 0.1% (w/v) bovine serum albumin (BSA), 1× Complete EDTA-free protease inhibitor mixture (Roche)] were added, and the mixture was incubated for 15 min to allow pre-binding of the substance to the enzyme prior to the kinase reaction. The kinase reaction was then started by adding 3 μl of a solution of adenosine triphosphate (ATP, 1.67 mM→final concentration in 5 μl assay volume=1 mM) and substrate (1.67 μM→final concentration in 5 μl assay volume=1 μM) in assay buffer, and the resulting mixture was incubated for a reaction time of 60 min at 22° C. The concentration of the Tie2 fusion protein was adapted to the respective activity of the enzyme and adjusted such that the assay was carried out in the linear range. Typical concentrations were in the range of 30 ng/ml.
The reaction was stopped by addition of 5 μl of a solution of TR-FRET detection reagents [200 nM streptavidin-XL665 and 2 nM PT66-Eu chelate, a europium chelate-labelled anti-phosphotyrosine antibody (Perkin-Elmer); alternatively, it is also possible to use PT66-Tb cryptate (Cisbio Bioassays, Codolet, France)] in aqueous EDTA solution[90 mM EDTA, 0.28% (w/v) bovine serum albumin (BSA) in 50 mM HEPES pH 7.5]. The resulting mixture was incubated at 22° C. for 1 h to allow formation of the complex of the biotinylated phosphorylated substrate and the detection reagents. The amount of phosphorylated substrate was then determined by measuring the resonance energy transfer from PT66-Eu chelate to streptavidin-XL665. To this end, the fluorescence emissions at 620 nm and 665 nm after excitation at 350 nm were measured in a TR-FRET measuring instrument (for example Viewlux, Perkin-Elmer). The ratio of the emissions at 665 nm and at 620 nm was taken as a measure of the amount of phosphorylated substrate.
Usually, the test substance in question was tested on the same microtitre plate at […] different concentrations in the range from 20 μM to 0.073 nM (for example at 20 μM, 5.7 μM, 1.6 μM, 0.47 μM, 0.13 μM, 38 nM, 11 nM, 3.1 nM, 0.89 nM, 0.25 nM and 0.073 nM) in duplicate for each concentration. The dilution series were prepared prior to the assay at the stage of the 100-fold concentrated solution by serial dilution (the exact concentrations may vary depending on the pipettors used in each case). IC50 values were calculated using a 4-parameter fit, with the aid of inhouse software.
Table 1 below lists the IC50 values from this assay for individual working examples (in some cases as means of several independent individual determinations): […]

T1 sequence (Q02763 776-1124): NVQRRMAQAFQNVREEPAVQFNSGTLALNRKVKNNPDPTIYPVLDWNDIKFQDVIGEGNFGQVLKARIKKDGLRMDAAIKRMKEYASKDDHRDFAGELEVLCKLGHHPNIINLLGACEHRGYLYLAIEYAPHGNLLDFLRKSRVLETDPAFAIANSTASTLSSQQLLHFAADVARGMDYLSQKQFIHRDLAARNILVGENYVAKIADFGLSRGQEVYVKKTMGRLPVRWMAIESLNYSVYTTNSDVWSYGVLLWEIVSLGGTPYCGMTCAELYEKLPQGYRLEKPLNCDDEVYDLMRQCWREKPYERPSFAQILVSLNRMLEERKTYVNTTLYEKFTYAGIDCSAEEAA

Structure (SMILES)	pIC50
Cc1ccc(NC(=O)c2cc(O)cc(S(F)(F)(F)(F)F)c2)cc1-n1ccn2nc(-c3cccnc3)cc12 [Example 20, 3-Hydroxy-N-{4-methyl-3-[6-(pyridin-3-yl)-1H-imidazo[1,2-b]pyrazol-1-yl]phenyl}-5-(pentafluoro-λ^6-sulphanyl)benzamide]	8.51
COc1cc(C(=O)Nc2ccc(C)c(-n3ccn4nc(-c5cccnc5)cc34)c2)cc(S(F)(F)(F)(F)F)c1 [Example 21, 3-Methoxy-N-{4-methyl-3-[6-(pyridin-3-yl)-1H-imidazo[1,2-b]pyrazol-1-yl]phenyl}-5-(pentafluoro-λ^6-sulphanyl)benzamide]	8.68
Cc1ccc(NC(=O)c2cc(OCCN)cc(S(F)(F)(F)(F)F)c2)cc1-n1ccn2nc(-c3cccnc3)cc12 [Example 22, 3-(2-Aminoethoxy)-N-{4-methyl-3-[6-(pyridin-3-yl)-1H-imidazo[1,2-b]pyrazol-1-yl]phenyl}-5-(pentafluoro-λ^6-sulphanyl)benzamide]	9.22
Cc1ccc(NC(=O)c2cc(OCCCN)cc(S(F)(F)(F)(F)F)c2)cc1-n1ccn2nc(-c3cccnc3)cc12 [Example 23, 3-(3-Aminopropoxy)-N-{4-methyl-3-[6-(pyridin-3-yl)-1H-imidazo[1,2-b]pyrazol-1-yl]phenyl}-5-(pentafluoro-λ^6-sulphanyl)benzamide]	9.52
Cc1ccc(NC(=O)c2cc(OC3CNC3)cc(S(F)(F)(F)(F)F)c2)cc1-n1ccn2nc(-c3cccnc3)cc12 [Example 24, 3-(Azetidin-3-yloxy)-N-{4-methyl-3-[6-(pyridin-3-yl)-1H-imidazo[1,2-b]pyrazol-1-yl]phenyl}-5-(pentafluoro-λ^6-sulphanyl)benzamide]	9.10
Cc1ccc(NC(=O)c2cc(OC3CCNC3)cc(S(F)(F)(F)(F)F)c2)cc1-n1ccn2nc(-c3cccnc3)cc12 (stereo not drawn) [Example 25, N-{4-Methyl-3-[6-(pyridin-3-yl)-1H-imidazo[1,2-b]pyrazol-1-yl]phenyl}-3-(pentafluoro-λ^6-sulphanyl)-5-(pyrrolidin-3-yloxy)benzamide]	8.72
Cc1ccc(NC(=O)c2cc(Cl)cc(S(F)(F)(F)(F)F)c2)cc1-n1ccn2nc(-c3cccnc3)cc12 [Example 27, 3-Chloro-N-{4-methyl-3-[6-(pyridin-3-yl)-1H-imidazo[1,2-b]pyrazol-1-yl]phenyl}-5-(pentafluoro-λ^6-sulphanyl)benzamide]	8.51
Cc1ccc(NC(=O)c2cc(C(N)=O)cc(S(F)(F)(F)(F)F)c2)cc1-n1ccn2nc(-c3cccnc3)cc12 [Example 29, N-{4-Methyl-3-[6-(pyridin-3-yl)-1H-imidazo[1,2-b]pyrazol-1-yl]phenyl}-5-(pentafluoro-λ^6-sulphanyl)isophthalamide]	8.70
Cc1cc(C(=O)Nc2ccc(C)c(-n3ccn4nc(-c5cccnc5)cc34)c2)cc(S(F)(F)(F)(F)F)c1 [Example 30, 3-Methyl-N-{4-methyl-3-[6-(pyridin-3-yl)-1H-imidazo[1,2-b]pyrazol-1-yl]phenyl}-5-(pentafluoro-λ^6-sulphanyl)benzamide]	8.70
Cc1ccc(NC(=O)c2cc(CO)cc(S(F)(F)(F)(F)F)c2)cc1-n1ccn2nc(-c3cccnc3)cc12 [Example 31, 3-(Hydroxymethyl)-N-{4-methyl-3-[6-(pyridin-3-yl)-1H-imidazo[1,2-b]pyrazol-1-yl]phenyl}-5-(pentafluoro-λ^6-sulphanyl)benzamide]	8.96
Cc1ccc(NC(=O)c2cc(CN3CCCC3)cc(S(F)(F)(F)(F)F)c2)cc1-n1ccn2nc(-c3cccnc3)cc12 [Example 33, N-{4-Methyl-3-[6-(pyridin-3-yl)-1H-imidazo[1,2-b]pyrazol-1-yl]phenyl}-3-(pentafluoro-λ^6-sulphanyl)-5-(pyrrolidin-1-ylmethyl)benzamide]	8.60
Cc1ccc(NC(=O)c2cc(CN3CC[C@H](O)C3)cc(S(F)(F)(F)(F)F)c2)cc1-n1ccn2nc(-c3cccnc3)cc12 [Example 34, 3-{[(3S)-3-Hydroxypyrrolidin-1-yl]methyl}-N-{4-methyl-3-[6-(pyridin-3-yl)-1H-imidazo[1,2-b]-pyrazol-1-yl]phenyl}-5-(pentafluoro-λ^6-sulphanyl)benzamide]	8.68
Cc1ccc(NC(=O)c2cc(CN3CCNCC3)cc(S(F)(F)(F)(F)F)c2)cc1-n1ccn2nc(-c3cccnc3)cc12 [Example 35, N-{4-Methyl-3-[6-(pyridin-3-yl)-1H-imidazo[1,2-b]pyrazol-1-yl]phenyl}-3-(pentafluoro-λ^6-sulphanyl)-5-(piperazin-1-ylmethyl)benzamide]	9.30
Cc1ccc(NC(=O)c2cc(CN3CCN(C)CC3)cc(S(F)(F)(F)(F)F)c2)cc1-n1ccn2nc(-c3cccnc3)cc12 [Example 36, 3-[(4-Methylpiperazin-1-yl)methyl]-N-{4-methyl-3-[6-(pyridin-3-yl)-1H-imidazo[1,2-b]pyrazol-1-yl]phenyl}-5-(pentafluoro-λ^6-sulphanyl)benzamide]	9.52
Cc1ccc(NC(=O)c2cc(C3(O)CNC3)cc(S(F)(F)(F)(F)F)c2)cc1-n1ccn2nc(-c3cccnc3)cc12 [Example 37, 3-(3-Hydroxyazetidin-3-yl)-N-{4-methyl-3-[6-(pyridin-3-yl)-1H-imidazo[1,2-b]pyrazol-1-yl]-phenyl}-5-(pentafluoro-λ^6-sulphanyl)benzamide bis(trifluoroacetate)]	9.40
Cc1ccc(NC(=O)c2cc(C#N)cc(OC(F)(F)F)c2)cc1-n1ccn2nc(-c3cccnc3)cc12 [Example 38, 3-Cyano-N-{4-methyl-3-[6-(pyridin-3-yl)-1H-imidazo[1,2-b]pyrazol-1-yl]phenyl}-5-(trifluoromethoxy)benzamide]	7.82
Cc1ccc(NC(=O)c2cccc(C(F)(F)F)c2)cc1-n1ccn2nc(-c3cccnc3)cc12 [Example 39, N-{4-Methyl-3-[6-(pyridin-3-yl)-1H-imidazo[1,2-b]pyrazol-1-yl]phenyl}-3-(trifluoromethyl)-benzamide]	6.49
Cc1ccc(NC(=O)c2cc(N3CCN(C)CC3)cc(C(F)(F)F)c2)cc1-n1ccn2nc(-c3cccnc3)cc12 [Example 41, 3-(4-Methylpiperazin-1-yl)-N-{4-methyl-3-[6-(pyridin-3-yl)-1H-imidazo[1,2-b]pyrazol-1-yl]-phenyl}-5-(trifluoromethyl)benzamide]	7.46
Cc1ccc(NC(=O)c2cc(N(C)CCCN(C)C)cc(C(F)(F)F)c2)cc1-n1ccn2nc(-c3cccnc3)cc12 [Example 42, 3-{[3-(Dimethylamino)propyl](methyl)amino}-N-{4-methyl-3-[6-(pyridin-3-yl)-1H-imidazo-[1,2-b]pyrazol-1-yl]phenyl}-5-(trifluoromethyl)benzamide]	8.82
Cc1ccc(NC(=O)c2cc(C(F)(F)F)cc(C(F)(F)F)c2)cc1-n1ccn2nc(-c3cccnc3)cc12 [Example 43, N-{4-Methyl-3-[6-(pyridin-3-yl)-1H-imidazo[1,2-b]pyrazol-1-yl]phenyl}-3,5-bis(trifluoromethyl)-benzamide]	7.25
Cc1ccc(NC(=O)c2cc(C#N)cc(C(F)(F)F)c2)cc1-n1ccn2nc(-c3cccnc3)cc12 [Example 44, 3-Cyano-N-{4-methyl-3-[6-(pyridin-3-yl)-1H-imidazo[1,2-b]pyrazol-1-yl]phenyl}-5-(trifluoromethyl)benzamide]	6.89
